These results are taken from ChEMBL document CHEMBL5465560, “Selectivity Literature for EUbOPEN Chemogenomic Library” (2024).

The target in assay [1] is Mitogen-activated protein kinase kinase kinase 10 (Homo sapiens) (UniProt Q02779). Briefly: Selectivity interaction (KinomeScan (DiscoverX)) EUB0000695a MAP3K10. The note with it: at 100 nM.
Assay [2] addresses T1, MAP/microtubule affinity-regulating kinase 4 (Homo sapiens) (UniProt Q96L34).
T1 sequence (whole entry): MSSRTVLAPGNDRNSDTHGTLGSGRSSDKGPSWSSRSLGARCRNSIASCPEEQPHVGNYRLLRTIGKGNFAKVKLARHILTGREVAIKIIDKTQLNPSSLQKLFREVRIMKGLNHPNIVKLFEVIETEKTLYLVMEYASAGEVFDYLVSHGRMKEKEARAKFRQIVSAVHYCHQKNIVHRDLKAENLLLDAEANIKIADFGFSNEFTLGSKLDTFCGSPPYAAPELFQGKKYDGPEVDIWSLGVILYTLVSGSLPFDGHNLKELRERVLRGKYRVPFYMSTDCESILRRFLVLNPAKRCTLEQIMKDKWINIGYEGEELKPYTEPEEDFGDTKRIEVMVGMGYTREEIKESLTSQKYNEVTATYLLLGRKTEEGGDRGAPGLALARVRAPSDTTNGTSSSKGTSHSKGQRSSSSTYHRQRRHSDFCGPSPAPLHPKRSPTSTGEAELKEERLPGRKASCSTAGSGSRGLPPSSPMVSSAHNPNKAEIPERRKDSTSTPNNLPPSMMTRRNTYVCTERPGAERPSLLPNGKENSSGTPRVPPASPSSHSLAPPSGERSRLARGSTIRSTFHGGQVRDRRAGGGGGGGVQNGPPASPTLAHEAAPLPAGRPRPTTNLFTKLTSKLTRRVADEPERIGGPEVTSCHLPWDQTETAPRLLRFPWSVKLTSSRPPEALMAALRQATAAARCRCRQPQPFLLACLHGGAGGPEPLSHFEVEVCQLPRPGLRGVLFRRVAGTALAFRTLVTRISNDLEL
Nature of the assay: Selectivity interaction (Kinase panel (DSF assay)) EUB0001559a MARK4.

For assay [3], the target named is Mitogen-activated protein kinase kinase kinase kinase 5 (Homo sapiens) (UniProt Q9Y4K4). Briefly: Selectivity interaction (KinomeScan (DiscoverX)) EUB0001049a MAP4K5. The following applies: at 1 µM.
Chain of Mitogen-activated protein kinase kinase kinase kinase 5 (Homo sapiens) (Q9Y4K4 whole entry, looked up): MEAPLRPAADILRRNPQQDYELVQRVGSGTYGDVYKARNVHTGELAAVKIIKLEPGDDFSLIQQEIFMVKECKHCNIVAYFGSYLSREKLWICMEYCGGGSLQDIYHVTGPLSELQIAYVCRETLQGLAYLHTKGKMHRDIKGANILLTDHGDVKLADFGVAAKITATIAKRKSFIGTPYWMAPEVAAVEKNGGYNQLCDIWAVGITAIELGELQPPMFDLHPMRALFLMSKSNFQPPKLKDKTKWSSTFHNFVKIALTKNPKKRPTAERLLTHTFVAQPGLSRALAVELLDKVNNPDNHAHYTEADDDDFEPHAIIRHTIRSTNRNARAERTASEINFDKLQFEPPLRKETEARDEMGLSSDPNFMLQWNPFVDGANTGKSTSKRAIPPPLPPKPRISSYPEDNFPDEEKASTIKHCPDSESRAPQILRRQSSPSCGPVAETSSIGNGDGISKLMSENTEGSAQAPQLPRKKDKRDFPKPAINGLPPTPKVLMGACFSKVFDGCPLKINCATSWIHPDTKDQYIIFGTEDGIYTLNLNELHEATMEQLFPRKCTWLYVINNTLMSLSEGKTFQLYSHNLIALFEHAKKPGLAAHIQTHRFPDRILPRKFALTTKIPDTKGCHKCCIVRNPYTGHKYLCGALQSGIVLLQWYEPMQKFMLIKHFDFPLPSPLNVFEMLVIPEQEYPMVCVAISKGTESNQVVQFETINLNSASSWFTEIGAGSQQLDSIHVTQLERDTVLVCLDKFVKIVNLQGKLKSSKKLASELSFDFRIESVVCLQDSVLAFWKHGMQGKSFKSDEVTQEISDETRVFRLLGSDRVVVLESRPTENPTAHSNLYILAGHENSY
Assay [4] concerns the target Serine/threonine-protein kinase 32A (Homo sapiens) (UniProt Q8WU08). Nature of the assay: Selectivity interaction (KinomeScan (DiscoverX)) EUB0000618a STK32A. The following applies: at 10 µM.
The target of assay [5] is T2, Serine/threonine-protein kinase Sgk3 (Homo sapiens) (UniProt Q96BR1).
T2 sequence (whole entry): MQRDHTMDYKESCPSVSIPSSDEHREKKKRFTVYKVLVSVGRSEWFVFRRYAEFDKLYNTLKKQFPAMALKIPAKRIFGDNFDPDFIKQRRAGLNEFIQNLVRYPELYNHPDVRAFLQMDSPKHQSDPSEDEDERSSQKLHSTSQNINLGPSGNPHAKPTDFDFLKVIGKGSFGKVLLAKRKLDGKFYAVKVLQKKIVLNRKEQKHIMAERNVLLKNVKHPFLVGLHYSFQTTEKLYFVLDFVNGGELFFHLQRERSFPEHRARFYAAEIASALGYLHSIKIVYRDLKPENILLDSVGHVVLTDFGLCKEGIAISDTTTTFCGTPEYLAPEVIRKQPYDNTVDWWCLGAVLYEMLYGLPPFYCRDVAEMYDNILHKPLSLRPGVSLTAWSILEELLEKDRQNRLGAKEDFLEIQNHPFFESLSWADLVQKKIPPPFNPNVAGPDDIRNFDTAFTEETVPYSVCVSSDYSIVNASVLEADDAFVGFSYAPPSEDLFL
Nature of the assay: Selectivity interaction (KinomeScan (DiscoverX)) EUB0000092b SGK3. The note with it: at 10 µM.

In assay [6] the target is T3, Ephrin type-A receptor 6 (Homo sapiens) (UniProt Q9UF33).
T3 sequence (whole entry): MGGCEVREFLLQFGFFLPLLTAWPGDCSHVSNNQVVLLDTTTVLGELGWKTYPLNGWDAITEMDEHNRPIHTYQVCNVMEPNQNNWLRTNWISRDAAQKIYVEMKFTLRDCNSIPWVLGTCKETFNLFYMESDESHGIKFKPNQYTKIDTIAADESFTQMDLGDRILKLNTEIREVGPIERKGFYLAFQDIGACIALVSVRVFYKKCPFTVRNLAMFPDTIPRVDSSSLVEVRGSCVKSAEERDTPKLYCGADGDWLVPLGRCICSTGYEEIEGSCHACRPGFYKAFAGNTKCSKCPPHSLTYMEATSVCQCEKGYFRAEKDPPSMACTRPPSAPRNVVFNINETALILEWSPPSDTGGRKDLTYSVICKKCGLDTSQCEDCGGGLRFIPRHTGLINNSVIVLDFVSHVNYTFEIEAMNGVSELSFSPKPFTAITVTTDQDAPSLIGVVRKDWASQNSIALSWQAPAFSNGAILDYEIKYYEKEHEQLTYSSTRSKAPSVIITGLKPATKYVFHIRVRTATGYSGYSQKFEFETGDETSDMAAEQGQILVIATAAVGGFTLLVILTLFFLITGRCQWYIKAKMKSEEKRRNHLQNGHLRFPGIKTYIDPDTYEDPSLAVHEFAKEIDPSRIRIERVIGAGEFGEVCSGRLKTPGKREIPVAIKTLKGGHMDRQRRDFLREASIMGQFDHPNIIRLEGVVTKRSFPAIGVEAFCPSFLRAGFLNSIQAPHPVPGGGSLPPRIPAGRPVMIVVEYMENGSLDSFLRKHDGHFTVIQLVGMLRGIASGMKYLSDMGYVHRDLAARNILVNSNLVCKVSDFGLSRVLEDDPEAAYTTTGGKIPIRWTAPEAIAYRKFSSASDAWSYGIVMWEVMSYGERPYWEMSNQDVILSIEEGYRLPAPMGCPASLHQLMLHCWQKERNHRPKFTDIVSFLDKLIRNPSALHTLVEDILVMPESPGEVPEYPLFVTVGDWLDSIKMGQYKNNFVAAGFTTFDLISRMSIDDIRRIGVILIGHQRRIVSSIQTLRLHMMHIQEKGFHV
Nature of the assay: Selectivity interaction (KinomeScan (DiscoverX)) EUB0000229b EPHA6. The note with it: at 10 µM.

Chain of Mitogen-activated protein kinase kinase kinase 10 (Homo sapiens) (Q02779 whole entry, looked up): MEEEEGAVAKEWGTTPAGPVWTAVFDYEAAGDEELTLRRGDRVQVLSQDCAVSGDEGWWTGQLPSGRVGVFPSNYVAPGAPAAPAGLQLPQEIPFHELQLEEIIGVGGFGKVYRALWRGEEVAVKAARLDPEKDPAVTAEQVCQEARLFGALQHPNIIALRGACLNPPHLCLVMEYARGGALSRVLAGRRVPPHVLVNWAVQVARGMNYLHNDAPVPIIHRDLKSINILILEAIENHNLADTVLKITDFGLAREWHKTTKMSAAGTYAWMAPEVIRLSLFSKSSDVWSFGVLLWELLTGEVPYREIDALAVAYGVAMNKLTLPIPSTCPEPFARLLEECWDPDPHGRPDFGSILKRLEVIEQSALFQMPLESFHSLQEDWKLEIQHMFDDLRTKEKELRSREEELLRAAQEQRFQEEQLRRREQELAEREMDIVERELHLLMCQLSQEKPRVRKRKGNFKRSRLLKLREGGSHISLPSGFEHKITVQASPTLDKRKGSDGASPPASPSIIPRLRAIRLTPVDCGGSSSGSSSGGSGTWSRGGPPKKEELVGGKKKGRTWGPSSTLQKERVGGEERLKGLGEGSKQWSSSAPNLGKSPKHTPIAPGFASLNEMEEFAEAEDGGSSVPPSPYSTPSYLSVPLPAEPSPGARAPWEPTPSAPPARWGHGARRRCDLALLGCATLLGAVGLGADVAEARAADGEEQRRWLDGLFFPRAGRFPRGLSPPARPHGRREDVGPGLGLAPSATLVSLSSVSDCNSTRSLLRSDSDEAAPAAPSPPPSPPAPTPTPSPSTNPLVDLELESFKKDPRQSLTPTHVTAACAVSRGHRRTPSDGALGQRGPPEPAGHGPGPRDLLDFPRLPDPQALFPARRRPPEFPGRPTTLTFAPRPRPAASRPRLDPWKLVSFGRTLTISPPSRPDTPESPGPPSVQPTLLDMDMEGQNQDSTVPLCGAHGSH
Chain of Serine/threonine-protein kinase 32A (Homo sapiens) (Q8WU08 whole entry): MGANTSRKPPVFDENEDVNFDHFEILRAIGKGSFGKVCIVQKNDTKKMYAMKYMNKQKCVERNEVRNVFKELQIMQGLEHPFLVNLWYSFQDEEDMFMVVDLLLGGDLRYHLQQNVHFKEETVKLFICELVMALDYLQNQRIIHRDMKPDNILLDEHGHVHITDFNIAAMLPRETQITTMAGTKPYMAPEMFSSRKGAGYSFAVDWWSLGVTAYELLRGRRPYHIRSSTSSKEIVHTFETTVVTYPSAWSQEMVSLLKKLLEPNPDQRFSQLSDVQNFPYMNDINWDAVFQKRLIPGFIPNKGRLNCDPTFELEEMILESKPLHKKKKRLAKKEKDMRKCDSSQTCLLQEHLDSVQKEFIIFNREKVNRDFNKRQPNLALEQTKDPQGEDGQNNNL

Turning to `Cc1cc(F)c(C(=O)Nc2cccc(-c3nncn3C(C)C)n2)cc1-n1cnc(C2CC2)c1`, the % of control in assay [1] was 100%.

In assay [2], `CN(C(=O)c1cnn2cccnc12)c1cc2c(cc1N1CCOCC1)C(=O)N(C[C@@H](F)C(C)(C)O)C2` yielded a dTM of 0.9 K.

Compound `COc1cc(Nc2nc(C)cc(-c3cnn4nc(OC)ccc34)n2)cc(C(F)(F)F)c1` gave a % of control in assay [3] of 94%. Regarding `O[C@H]1CC[C@H](Nc2ncc3nc(Nc4c(F)cc(F)cc4F)n([C@H]4CCOC4)c3n2)CC1`, the % of control in assay [4] was 62%. In assay [5], `CCC(=O)N1CCN(c2ccc(-n3c(=O)ccc4cnc5ccc(-c6cnc7ccccc7c6)cc5c43)cc2C(F)(F)F)CC1` registered a % of control of 100%. Turning to `COc1cc(N(C)c2ccnc3ccc(C(F)(F)F)cc23)cc(OC)c1OC`, the % binding in assay [6] was determined as 97%.
